# Legend:
# [1] = target: purified human, His-tagged PRC2 complex (Homo sapiens, UniProt O75530+Q15910); test: Hot Spot HMT assay: inhibition of PRC2 enzymatic activity (transfer of tritiated methyl from SAM to core histone, filter binding); format: biochemical; details: Inhibition of PRC2-mediated enzymatic activity; 10 nM PRC2 complex, 0.05 mg/ml core histone H3, 1 uM 3H-SAM, 1 hr at 30°C
# Method in brief: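 Five-subunit complex (His-EZH2, Flag-EED, His-SUZ12, His-AEBP2, His-RbAp48) at 10 nM with 0.05 mg/ml core histone H3, pH 8 Tris buffer, 1% DMSO; 20 min compound pre-incubation at 30°C. Started with 1 uM [3H]-SAM, 1 hr at 30°C; tritiated H3 counted by scintillation. Compounds diluted from 1.0 µM top concentration.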
# Karpas 422 cells = test: Karpas 422 cell viability, CTG (Cell Titre Glo) assay; format: cell-based, human; details: Homo sapiens; Inhibition of proliferation of Karpas 422 cells (EZH2 Y641N); viability measured Day 4, Day 7 or Day 11, time point of the tabulated values not stated
# Method in brief: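 Karpas 422 cells (EZH2 Y641N, DLBCL) plated at 1000 cells/well in RPMI with 20% FBS, exposed to compound 10µM down to 1.5nM in 3-fold steps at 37 °C. Viability by CellTiter-Glo on Days 4, 7 and 11; Day 11 plates re-fed with fresh medium and compound on Day 7. IC50 per time point.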
# purified human, His-tagged PRC2 complex, sequence (Q15910 whole entry): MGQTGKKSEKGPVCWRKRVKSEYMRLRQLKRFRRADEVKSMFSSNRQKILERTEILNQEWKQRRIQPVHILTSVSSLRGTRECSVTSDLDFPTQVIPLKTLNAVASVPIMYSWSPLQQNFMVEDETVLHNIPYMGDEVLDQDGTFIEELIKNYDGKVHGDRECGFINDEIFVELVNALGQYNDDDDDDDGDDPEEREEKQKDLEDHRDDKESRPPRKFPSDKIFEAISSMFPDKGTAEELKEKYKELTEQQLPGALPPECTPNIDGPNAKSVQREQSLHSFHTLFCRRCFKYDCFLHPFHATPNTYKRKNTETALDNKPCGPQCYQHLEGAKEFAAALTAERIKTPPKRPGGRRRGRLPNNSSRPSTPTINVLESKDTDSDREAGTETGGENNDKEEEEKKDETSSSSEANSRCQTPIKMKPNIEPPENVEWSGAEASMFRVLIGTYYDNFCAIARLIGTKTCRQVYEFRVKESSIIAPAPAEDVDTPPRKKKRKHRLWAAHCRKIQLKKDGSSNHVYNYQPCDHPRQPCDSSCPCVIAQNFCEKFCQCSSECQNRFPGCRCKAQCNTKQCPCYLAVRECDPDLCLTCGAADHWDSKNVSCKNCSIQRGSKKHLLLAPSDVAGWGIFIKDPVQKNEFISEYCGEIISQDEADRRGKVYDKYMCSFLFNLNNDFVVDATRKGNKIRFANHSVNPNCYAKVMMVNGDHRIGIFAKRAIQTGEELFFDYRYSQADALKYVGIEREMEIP
# purified human, His-tagged PRC2 complex, sequence (O75530 whole entry): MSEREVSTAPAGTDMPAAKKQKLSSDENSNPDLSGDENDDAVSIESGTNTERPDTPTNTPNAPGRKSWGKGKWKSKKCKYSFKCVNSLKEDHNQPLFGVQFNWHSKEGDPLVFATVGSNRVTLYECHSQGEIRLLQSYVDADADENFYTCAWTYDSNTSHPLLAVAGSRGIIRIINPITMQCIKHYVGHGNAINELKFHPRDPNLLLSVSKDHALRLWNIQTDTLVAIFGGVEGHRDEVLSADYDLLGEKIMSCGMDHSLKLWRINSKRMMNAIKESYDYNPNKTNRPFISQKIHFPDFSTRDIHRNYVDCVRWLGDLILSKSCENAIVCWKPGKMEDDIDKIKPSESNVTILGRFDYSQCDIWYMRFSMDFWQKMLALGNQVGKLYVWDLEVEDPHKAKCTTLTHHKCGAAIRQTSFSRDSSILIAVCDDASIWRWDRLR
# purified human, His-tagged PRC2 complex, sequence (Q15022 whole entry partner): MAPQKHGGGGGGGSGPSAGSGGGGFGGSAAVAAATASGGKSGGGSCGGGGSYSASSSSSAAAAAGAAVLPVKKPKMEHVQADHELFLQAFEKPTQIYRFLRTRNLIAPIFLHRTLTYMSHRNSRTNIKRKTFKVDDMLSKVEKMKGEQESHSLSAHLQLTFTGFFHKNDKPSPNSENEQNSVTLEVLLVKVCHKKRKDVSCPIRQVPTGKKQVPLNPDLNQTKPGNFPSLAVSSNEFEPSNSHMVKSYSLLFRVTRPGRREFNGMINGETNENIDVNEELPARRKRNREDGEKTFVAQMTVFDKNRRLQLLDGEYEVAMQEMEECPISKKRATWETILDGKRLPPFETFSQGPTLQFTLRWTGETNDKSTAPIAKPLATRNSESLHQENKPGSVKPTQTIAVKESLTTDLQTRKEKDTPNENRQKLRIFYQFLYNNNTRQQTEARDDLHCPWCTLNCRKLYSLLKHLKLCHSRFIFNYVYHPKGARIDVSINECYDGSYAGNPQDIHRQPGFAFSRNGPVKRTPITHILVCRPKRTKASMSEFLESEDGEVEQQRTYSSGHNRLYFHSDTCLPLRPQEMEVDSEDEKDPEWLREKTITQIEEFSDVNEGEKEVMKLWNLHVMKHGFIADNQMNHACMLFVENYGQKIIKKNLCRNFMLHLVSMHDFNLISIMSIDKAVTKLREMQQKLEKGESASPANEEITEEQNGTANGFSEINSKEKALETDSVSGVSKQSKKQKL
# purified human, His-tagged PRC2 complex, sequence (Q6ZN18 whole entry partner): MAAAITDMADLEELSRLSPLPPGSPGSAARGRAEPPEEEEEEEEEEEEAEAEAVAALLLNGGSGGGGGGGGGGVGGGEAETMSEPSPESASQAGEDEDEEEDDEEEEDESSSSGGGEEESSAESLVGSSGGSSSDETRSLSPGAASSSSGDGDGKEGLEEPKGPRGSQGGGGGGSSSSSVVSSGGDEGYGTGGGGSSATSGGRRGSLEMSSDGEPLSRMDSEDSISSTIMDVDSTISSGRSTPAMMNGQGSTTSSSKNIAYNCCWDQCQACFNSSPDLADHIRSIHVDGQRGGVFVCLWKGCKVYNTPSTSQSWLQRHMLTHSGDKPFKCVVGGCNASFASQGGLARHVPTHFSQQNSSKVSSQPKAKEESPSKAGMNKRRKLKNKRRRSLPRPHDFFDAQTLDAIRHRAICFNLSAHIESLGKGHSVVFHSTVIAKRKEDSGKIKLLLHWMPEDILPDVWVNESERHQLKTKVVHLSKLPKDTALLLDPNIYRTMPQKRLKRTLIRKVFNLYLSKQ
# purified human, His-tagged PRC2 complex, sequence (Q09028 whole entry partner): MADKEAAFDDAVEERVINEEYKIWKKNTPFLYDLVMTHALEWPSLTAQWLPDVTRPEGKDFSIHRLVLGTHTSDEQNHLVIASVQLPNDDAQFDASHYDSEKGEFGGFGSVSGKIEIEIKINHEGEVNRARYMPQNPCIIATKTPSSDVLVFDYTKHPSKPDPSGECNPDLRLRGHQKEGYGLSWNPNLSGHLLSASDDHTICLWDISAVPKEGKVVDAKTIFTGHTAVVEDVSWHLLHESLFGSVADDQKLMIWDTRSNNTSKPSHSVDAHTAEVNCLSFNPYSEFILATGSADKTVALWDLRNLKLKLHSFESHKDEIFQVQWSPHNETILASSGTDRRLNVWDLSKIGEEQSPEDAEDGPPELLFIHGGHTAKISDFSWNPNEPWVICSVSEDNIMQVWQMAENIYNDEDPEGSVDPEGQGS
structure (smiles),measurement,setting,value
"CN(C)Cc1ccc(-c2cnc(NCc3c(F)ccc4c3CCO4)n3cc(C#N)nc23)cc1 [Example 112, 8-(4-((dimethylamino)methyl)phenyl)-5-(((5-fluoro-2,3-dihydrobenzofuran-4-yl)methyl)amino)imidazo[1,2-c]pyrimidine-2-carbonitrile]",IC50,[1],< 100 nM
same,IC50,Karpas 422 cells,≤ 250 nM
"Cc1cc(-c2cnc(NCc3c(F)ccc4c3CCO4)n3cc(C(=O)N(C)C)nc23)n(C)n1 [Example 21, 8-(1,3-dimethyl-1H-pyrazol-5-yl)-5-(((5-fluoro-2,3-dihydrobenzofuran-4-yl)methyl)amino)-N,N-dimethylimidazo[1,2-c]pyrimidine-2-carboxamide]",IC50,[1],> 500 nM
same,IC50,Karpas 422 cells,≤ 250 nM
"N#Cc1cn2c(NCc3c(F)ccc4c3CCO4)ncc(-c3ccc(CN4CCC(F)C4)cc3)c2n1 (stereo not drawn) [Example 54, 5-(((5-fluoro-2,3-dihydrobenzofuran-4-yl)methyl)amino)-8-(4-((3-fluoropyrrolidin-1-yl)methyl)phenyl)imidazo[1,2-c]pyrimidine-2-carbonitrile]",IC50,[1],< 100 nM
same,IC50,Karpas 422 cells,≤ 250 nM
"N#Cc1cn2c(NCc3c(F)ccc4c3CCO4)ncc(-c3ccc(C4CC4)nc3)c2n1 [Example 116, 8-(6-cyclopropylpyridin-3-yl)-5-(((5-fluoro-2,3-dihydrobenzofuran-4-yl)methyl)amino)imidazo[1,2-c]pyrimidine-2-carbonitrile]",IC50,[1],< 100 nM
same,IC50,Karpas 422 cells,≤ 250 nM
"Cc1nc(N2CCN(C)CC2)ccc1-c1cnc(NCc2c(F)ccc3c2CCO3)n2cc(C(N)=O)nc12 [Example 138, 5-(((5-fluoro-2,3-dihydrobenzofuran-4-yl)methyl)amino)-8-(2-methyl-6-(4-methylpiperazin-1-yl)pyridin-3-yl)imidazo[1,2-c]pyrimidine-2-carboxamide]",IC50,[1],< 100 nM
same,IC50,Karpas 422 cells,≤ 250 nM
"CNS(=O)(=O)c1ccc(-c2cnc(NCc3c(F)ccc4c3CCO4)n3cc(C#N)nc23)cc1 [Example 59, 4-(2-cyano-5-(((5-fluoro-2,3-dihydrobenzofuran-4-yl)methyl)amino)imidazo[1,2-c]pyrimidin-8-yl)-N-methylbenzenesulfonamide]",IC50,[1],< 100 nM
same,IC50,Karpas 422 cells,250 to 500 nM
"Cc1cc(-c2cnc(NCc3c(Cl)ccc4c3CCO4)n3cc(C#N)nc23)n(C)n1 [Example 29, 5-(((5-chloro-2,3-dihydrobenzofuran-4-yl)methyl)amino)-8-(1,3-dimethyl-1H-pyrazol-5-yl)imidazo[1,2-c]pyrimidine-2-carbonitrile]",IC50,[1],> 500 nM
same,IC50,Karpas 422 cells,> 500 nM
"Cc1cc(-c2cnc(NCc3cccc4c3CCO4)n3cc(C(N)=O)nc23)n(C)n1 [Example 19, 5-(((2,3-dihydrobenzofuran-4-yl)methyl)amino)-8-(1,3-dimethyl-1H-pyrazol-5-yl)imidazo[1,2-c]pyrimidine-2-carboxamide]",IC50,[1],< 100 nM
same,IC50,Karpas 422 cells,250 to 500 nM
"N#Cc1ccc(-c2cnc(NCc3c(F)ccc4c3CCO4)n3cc(C#N)nc23)cn1 [Example 128, 8-(6-cyanopyridin-3-yl)-5-(((5-fluoro-2,3-dihydrobenzofuran-4-yl)methyl)amino)imidazo[1,2-c]pyrimidine-2-carbonitrile]",IC50,[1],< 100 nM
same,IC50,Karpas 422 cells,> 500 nM
"Cn1nccc1-c1cnc(NCc2c(F)ccc3c2CCO3)n2cc(C#N)nc12 [Example 114, 5-(((5-fluoro-2,3-dihydrobenzofuran-4-yl)methyl)amino)-8-(1-methyl-1H-pyrazol-5-yl)imidazo[1,2-c]pyrimidine-2-carbonitrile]",IC50,[1],< 100 nM
same,IC50,Karpas 422 cells,≤ 250 nM
"Cc1cncc(-c2cnc(NCc3c(F)ccc4c3CCO4)n3cc(C#N)nc23)c1 [Example 96, 5-(((5-fluoro-2,3-dihydrobenzofuran-4-yl)methyl)amino)-8-(5-methylpyridin-3-yl)imidazo[1,2-c]pyrimidine-2-carbonitrile]",IC50,[1],< 100 nM
same,IC50,Karpas 422 cells,250 to 500 nM
"Cc1nn(C(C)C)cc1-c1cnc(NCc2c(F)ccc3c2CCO3)n2cc(C(=O)O)nc12 [Example 5, 5-(((5-fluoro-2,3-dihydrobenzofuran-4-yl)methyl)amino)-8-(1-isopropyl-3-methyl-1H-pyrazol-4-yl)imidazo[1,2-c]pyrimidine-2-carboxylic acid]",IC50,[1],< 100 nM
same,IC50,Karpas 422 cells,> 500 nM
"Cc1c(-c2cnc(NCc3c(F)ccc4c3CCO4)n3cc(C(N)=O)nc23)cnn1C(C)C [Example 16, 5-(((5-fluoro-2,3-dihydrobenzofuran-4-yl)methyl)amino)-8-(1-isopropyl-5-methyl-1H-pyrazol-4-yl)imidazo[1,2-c]pyrimidine-2-carboxamide]",IC50,[1],< 100 nM
same,IC50,Karpas 422 cells,250 to 500 nM
"CN1CCN(C(=O)c2ccc(-c3cnc(NCc4c(F)ccc5c4CCO5)n4cc(C#N)nc34)cc2)CC1 [Example 115, 5-(((5-fluoro-2,3-dihydrobenzofuran-4-yl)methyl)amino)-8-(4-(4-methylpiperazine-1-carbonyl)phenyl)imidazo[1,2-c]pyrimidine-2-carbonitrile]",IC50,[1],< 100 nM
same,IC50,Karpas 422 cells,≤ 250 nM
"N#Cc1cn2c(NCc3c(F)ccc4c3CCO4)ncc(-c3ccc(N)nc3)c2n1 [Example 127, 8-(6-aminopyridin-3-yl)-5-(((5-fluoro-2,3-dihydrobenzofuran-4-yl)methyl)amino)imidazo[1,2-c]pyrimidine-2-carbonitrile]",IC50,[1],< 100 nM
same,IC50,Karpas 422 cells,250 to 500 nM
"CCn1cc(-c2cnc(NCc3c(F)ccc4c3CCO4)n3cc(C#N)nc23)cn1 [Example 119, 8-(1-ethyl-1H-pyrazol-4-yl)-5-(((5-fluoro-2,3-dihydrobenzofuran-4-yl)methyl)amino)imidazo[1,2-c]pyrimidine-2-carbonitrile]",IC50,[1],100 to 500 nM
same,IC50,Karpas 422 cells,≤ 250 nM
"Cc1cc(-c2cnc(NCc3c(F)ccc4occc34)n3cc(C(=O)O)nc23)n(C)n1 [Example 9, 8-(1,3-dimethyl-1H-pyrazol-5-yl)-5-(((5-fluorobenzofuran-4-yl)methyl)amino)imidazo[1,2-c]pyrimidine-2-carboxylic acid]",IC50,[1],< 100 nM
same,IC50,Karpas 422 cells,> 500 nM
"N#Cc1cn2c(NCc3c(F)ccc4c3CCO4)ncc(-c3cccnc3)c2n1 [Example 100, 5-(((5-fluoro-2,3-dihydrobenzofuran-4-yl)methyl)amino)-8-(pyridin-3-yl)imidazo[1,2-c]pyrimidine-2-carbonitrile]",IC50,[1],< 100 nM
same,IC50,Karpas 422 cells,≤ 250 nM
"CC(C)(O)Cn1cc(-c2cnc(NCc3c(F)ccc4c3CCO4)n3cc(C#N)nc23)cn1 [Example 121, 5-(((5-fluoro-2,3-dihydrobenzofuran-4-yl)methyl)amino)-8-(1-(2-hydroxy-2-methylpropyl)-1H-pyrazol-4-yl)imidazo[1,2-c]pyrimidine-2-carbonitrile]",IC50,[1],< 100 nM
same,IC50,Karpas 422 cells,250 to 500 nM
"CS(=O)(=O)c1ccc(-c2cnc(NCc3c(F)ccc4c3CCO4)n3cc(C#N)nc23)cc1 [Example 73, 5-(((5-fluoro-2,3-dihydrobenzofuran-4-yl)methyl)amino)-8-(4-(methylsulfonyl)phenyl)imidazo[1,2-c]pyrimidine-2-carbonitrile]",IC50,[1],< 100 nM
same,IC50,Karpas 422 cells,≤ 250 nM
"COc1ncc(-c2cnc(NCc3c(F)ccc4c3CCO4)n3cc(C#N)nc23)c(C)n1 [Example 88, 5-(((5-fluoro-2,3-dihydrobenzofuran-4-yl)methyl)amino)-8-(2-methoxy-4-methylpyrimidin-5-yl)imidazo[1,2-c]pyrimidine-2-carbonitrile]",IC50,[1],< 100 nM
same,IC50,Karpas 422 cells,≤ 250 nM
"N#Cc1cn2c(NCc3c(F)ccc4c3CCO4)ncc(-c3cccnn3)c2n1 [Example 142, 5-(((5-fluoro-2,3-dihydrobenzofuran-4-yl)methyl)amino)-8-(pyridazin-3-yl)imidazo[1,2-c]pyrimidine-2-carbonitrile]",IC50,[1],< 100 nM
same,IC50,Karpas 422 cells,≤ 250 nM
"Cc1nn(C)cc1-c1cnc(NCc2c(F)ccc3c2CCO3)n2cc(C#N)nc12 [Example 72, 8-(1,3-dimethyl-1H-pyrazol-4-yl)-5-(((5-fluoro-2,3-dihydrobenzofuran-4-yl)methyl)amino)imidazo[1,2-c]pyrimidine-2-carbonitrile]",IC50,[1],< 100 nM
same,IC50,Karpas 422 cells,> 500 nM
"CN(C)Cc1ccc(-c2cnc(NCc3c(F)ccc4c3CCO4)n3cc(C#N)nc23)c(F)c1F [Example 37, 8-(4-((dimethylamino)methyl)-2,3-difluorophenyl)-5-(((5-fluoro-2,3-dihydrobenzofuran-4-yl)methyl)amino)imidazo[1,2-c]pyrimidine-2-carbonitrile]",IC50,[1],< 100 nM
same,IC50,Karpas 422 cells,≤ 250 nM

# — patent publication EP4043466B1, “PRC2 INHIBITORS” (Mirati Therapeutics, Inc., priority 2018, dated 2019)
